Measured values: patent US20250381277A1, “COMPOSITIONS AND METHODS FOR TREATMENT OF NEUROLOGICAL DISORDERS” (Dana-Farber Cancer Institute, Inc., priority 2022, published 2025)
“Also recorded” adds a separate entry of the source.

Legend:
[1] = tested on: CD11c^− microglia; assay: Apoptotic neuron (AN) uptake and CD11c^- to CD11c^+ differentiation of microglia with αVβ3 / TAM receptor inhibitors; assay type: cell-based, mouse; settings: P5 B6-WT CD11c^− microglia, 72 h with pHrodo-labeled ANs 1:1; cilengitide 10 μM, LDC1267 1 μM
Description: (A) Brain single cell suspensions of 9-mo old WT mice were generated for validation of microglial CD11c expression by flow cytometry. We first gate on CD11b^+ cells from single/live cells followed by subsequent gating of CD11b^+CD45^low populations as potential microglia. […] In contrast, CCR2 but not Tmem 119 expression is detected in the CD11b^+CD45^high fraction, i.e., putative macrophage populations. Analysis of the CD11b^+CD45^low microglial population using FMO negative controls for these FACS plots confirms specificity. […] (B) The proportion of CD11c^+ microglia in C57BL/6 (B6) mice during early development and normal aging (n=3) was determined by flow cytometry analysis. CD11c^+ microglia were initially present at late embryonic day (E18.5), peaked at early postanal day (P5) and gradually declined to marginal levels in young adulthood (3-mon) followed by re-emergence and further expansion during aging. (C) CD11c^− microglia were isolated from P5 B6-WT mice by negative section with anti-CD11c magnetic beads (purity >99%) followed by co-incubation×72 h in the presence or absence of pHrodo fluorescent dye-labeled apoptotic neurons (ANs) at a 1:1 ratio. After 72 h incubation, 23% of total CD11c^− microglia had ingested ANs (AN^+), of which 77.4% of these AN^+ microglia were CD11c^+. […] Expression of CD11c was assessed in CD86^+ or MHC II^+ activated microglia. […]

[2] = tested on: CD11c^+ microglia of 9-mo old 5XFAD and OPN-KO.5XFAD mice; assay: In vitro analysis of OPN-dependent inhibition of TREM2-lysosomal phagocytic pathway and Aβ degradation; assay type: cell-based, mouse; settings: rmOPN 12.5 μg/ml, anti-OPN Ab 10 μg/ml
Method: (a) Protocol of in vitro analysis of OPN-dependent inhibition of TREM2-lysosomal phagocytic pathway in 9-mo old 5XFAD and OPN-KO.5XFAD mice. […] (d) The MFI of FAM-Aβ 1-42 after 1 h's incubation was determined by flow cytometry in lysosomes of CD11c^+ microglia (CD11c^+CD68^+) and defined as Aβ MFI1h. MFI of retained FAM-Aβ in lysosomes of CD11c^+ microglia (CD11c^+CD68^+) 24 h after FAM-Aβ1-42 withdrawal was determined and defined as Aβ MFI24h. […] All data are presented as mean±s.e.m.
To test the impact of OPN on TREM2-lysosome activation and AR degradation, microglia enriched by anti-CD11b microbeads (purity >95%, Miltenyi) from 9-mo old 5XFAD and OPN-KO.5XFAD mice were seeded into 12-well plates at 3×10^5 cells/well in conventional microglia culture medium (DMEM-F12 with 10% fetal bovine serum+10% penicillin/streptomycin+10 ng/ml recombinant mouse M-CSF). Microglia were then pre-incubated with anti-OPN Ab (10 μg/ml) for 1 h followed by the incubation with rmOPN ([…]) overnight. Then FAM-labeled Aβ1-42 peptide (1 μM) was added into culture for 1 h. Mean fluorescence intensity (MFI) of FAM-Aβ1-42 in lysosomes of CD11c^+ microglia (CD11c^+CD68^+) after 1 h's incubation was determined by flow cytometry and defined as Aβ MFI1h. FAM-Aβ1-42 was then withdrawn, and cells were cultured for 24 h in the presence or absence with anti-OPN Ab (10 μg/ml) and/or rmOPN (12.5 μg/ml) before analysis of CD11c^+ microglial expression of TREM2, CD68 and MFI of retained FAM-Aβ1-42 in CD11c^+CD68^+ microglia (defined as Aβ MFI24h) by flow cytometry. Aβ degradation rate was calculated as (Aβ MFI1h−Aβ MFI24h)/Aβ MFI1h.

Row | Compound | reduction of AN uptake by CD11c^− microglia [1] | Aβ degradation rate [(Aβ MFI1h−Aβ MFI24h)/Aβ MFI1h] in lysosomes of CD11c^+ microglia ([2]; FAM-Aβ1-42 1 μM) | CD68 expression in CD11c^+ microglia ([2]; OPN-KO.5XFAD microglia) | TREM2 expression in CD11c^+ microglia ([2]; OPN-KO.5XFAD microglia)
1 | CC(C)[C@H]1C(=O)N[C@@H](CCCN=C(N)N)C(=O)NCC(=O)N[C@@H](CC(=O)O)C(=O)N[C@H](Cc2ccccc2)C(=O)N1C [Cilengitide] | about 50% | – | – | –
2 | rmOPN: recombinant mouse OPN (osteopontin) | – | substantial reduction of Aβ degradation; also recorded: significantly reduced the Aβ degradation rate | reduced expression of CD68; also recorded: significantly reduced | sharply inhibited; also recorded: sharply reduced
